Assay results from patent publication US12329738B2, “Urolithin A and a composition containing same for external use in inflammations of various etiologies” (WARSZAWSKI UNIWERSYTET MEDYCZNY, priority 2018, dated 2025).

Experiments:
[1] = tested on: TNF-alpha; test: TNF-alpha production by THP-1 derived macrophages (ELISA); assay type: cell-based, human; settings: 40 μM; LPS stimulation; FIG. 13
Description: (§1) Monocytes of the THP-1 line were cultured in RPMI 1640 medium supplemented with 10% FBS and 2 mM glutamine. For transformation of monocytes into macrophages, the cells were treated with 12.5 ng/mL PMA (phorbol 12-myristate 13-acetate) for 48 hours, then washed and incubated for 24 hours in a culture medium without PMA. After this time, urolithin A, urolithin B, iso-urolithin A and the corresponding glucuronides (GUA, GUB and GiUA) were added to the cells at a concentration of 40 μM. After 1 hour of incubation with the compounds, the cells were stimulated with LPS from Escherichia coli (10 ng/mL).
(§2) To assess the level of TNF-alpha production, the cells were incubated for 6 hours, to assess the expression of mRNA for TNF-alpha, the cells were incubated for 24 hours, to assess the effect on ERK1/2 phosphorylation, the cells were incubated for 35 minutes.
(§3) The level of TNF-alpha in the culture medium was determined using the immunochemical ELISA method (BD biosciences). Evaluation of the expression of mRNA for TNF-alpha was performed using real time PCR. After 24 hours of incubation, RNA was isolated using NucleoSpin RNA Clean-up (Macherey-Nagel). The amount and quality of isolated RNA was determined using 2100 Bioanalyzer (Agilent Technologies). The expression level of mRNA for TNF-α was determined using Brilliant II SYBR Green QPCR Kit and Aria Mx Real-Time PCR thermocycler (Agilent Technologies). The following were used as primers for TNF-alpha: forward: 5′-[…]-3′, reverse: 5′-[…]-3′. Beta-actin (ACTB) was used as the housekeeping gene; primer forward: 5′-[…]-3′, reverse: 5′-[…]-3′).
(§4) The obtained results of experiments on in vitro models were analyzed using the Statistica 13 program (StatSoft, Inc., Tulsa, OK, USA) and presented as mean values±SEM. Statistical significance was set at P≤0.05. The results with established normal distribution in the D'Agostin and Pearson test were prepared using analysis of variance (ANOVA). Parametric post-hoc analysis was performed using Dunnett's test.

[2] = tested on: Wistar rats (DNCB-induced atopic dermatitis); test: Pruritus level (scratch reflexes) in DNCB-induced atopic dermatitis rat model; assay type: in vivo; settings: topical ointment; urolithin A 0.2 and 1.0% (p<0.001), hydrocortisone 1% (p<0.01)
Description: Wistar rats aged 5-6 weeks (at the start of the experiment) kept under standard conditions with free access to feed and water were used for the tests. The animals were divided into 5 groups, 8 individuals in each group. To prepare 2,4-dinitrochlorobenzene (DNCB) composition inducing inflammation, DNCB was dissolved in 70% ethanol to a final concentration of 1.5% (w/v). Therapeutic composition was an ointment based on white petrolatum with 0.2% or 1.0% urolithin A added. The control ointment was white petrolatum without addition of urolithin A. The induction of chronic atopic dermatitis involved local 9-fold infiltration with 60 μl 1.5% 2,4-dinitrochlorobenzene (DNCB) on each (external and internal) surface of the right ear over 3 weeks (3 times a week). Negative control was the right ear of rats without induction inflammation. Treatment of atopic dermatitis with 0.2% or 1.0% urolithin composition and white petrolatum (control) or 1.0% hydrocortisone composition (positive control) was started eight days after sensitization—one day before the fourth application of DNCB. Ointments with appropriate for given group drug added were applied in a total volume of about 20 μl to each ear surface one day before and 6 hours after each DNCB application (for a period of 3 weeks). The negative control group consisted of rats without induced inflammation and treated with white petrolatum in a regimen analogous to the composition of urolithin A or hydrocortisone. Measurement of pruritus level (as measured by scratching reflexes) was evaluated as the total frequency of scratch reflexes during 10 minutes immediately after DNCB application on days 0, 4, 8, 12, 16, 20, 24, 28 and 32 of the experiment). Scratching was defined as a single or series of several reflexes of scratching with a paw directed at the site of DNCB application. The experimental results obtained were analyzed using the Statistica 7.1 program (StatSoft, Inc., Tulsa, OK, USA) and presented as mean values±SE. Statistical significance was set at P≤0.05. The results with established normal distribution in the D'Agostin and Pearson test were prepared using two- or three-factor analysis of variance (ANOVA). Parametric post-hoc analysis for individual time points was performed using the Bonferroni test.

[3] = tested on: Wistar rats (DNCB-induced atopic dermatitis); test: Peripheral blood morphology in DNCB-induced atopic dermatitis rat model; assay type: in vivo
Description: Wistar rats aged 5-6 weeks (at the start of the experiment) kept under standard conditions with free access to feed and water were used for the tests. The animals were divided into 5 groups, 8 individuals in each group. To prepare 2,4-dinitrochlorobenzene (DNCB) composition inducing inflammation, DNCB was dissolved in 70% ethanol to a final concentration of 1.5% (w/v). Therapeutic composition was an ointment based on white petrolatum with 0.2% or 1.0% urolithin A added. The control ointment was white petrolatum without addition of urolithin A.
The induction of chronic atopic dermatitis involved local 9-fold infiltration with 60 μl 1.5% 2,4-dinitrochlorobenzene (DNCB) on each (external and internal) surface of the right ear over 3 weeks (3 times a week). Negative control was the right ear of rats without induction inflammation.
Treatment of atopic dermatitis with 0.2% or 1.0% urolithin composition and white petrolatum (control) or 1.0% hydrocortisone composition (positive control) was started eight days after sensitization—one day before the fourth application of DNCB. Ointments with appropriate for given group drug added were applied in a total volume of about 20 μl to each ear surface one day before and 6 hours after each DNCB application (for a period of 3 weeks). The negative control group consisted of rats without induced inflammation and treated with white petrolatum in a regimen analogous to the composition of urolithin A or hydrocortisone.
2 mL blood samples were drawn into syringes (containing heparin as an anticoagulant) from the heart under general anesthesia (isoflurane) on day 32 of the experiment. The test was conducted using the DIATRON automated hematology analyzer. Peripheral blood analysis included the assessment of morphotic elements in blood: erythrocytes, leukocytes and thrombocytes and determination of the number and percentage of different types of leukocytes—WBC as well as values of erythrocyte indicators: hemoglobin (HGB), hematocrit (HCT), mean corpuscular volume (MCV), mean corpuscular hemoglobin (MCH) and mean corpuscular hemoglobin concentration (MCHC).
The experimental results obtained were analyzed using the Statistica 7.1 program (StatSoft, Inc., Tulsa, OK, USA) and presented as mean values±SE. Statistical significance was set at P≤0.05. The results with established normal distribution in the D'Agostin and Pearson test were prepared using two- or three-factor analysis of variance (ANOVA). Parametric post-hoc analysis for individual time points was performed using the Bonferroni test.

[4] = tested on: Wistar rats (DNCB-induced atopic dermatitis); test: Ear thickness (edema) in DNCB-induced atopic dermatitis rat model; assay type: in vivo
Description: It is similar to the indications for use of hydrocortisone, which was used as a positive control in the study. Urolitin A was obtained by synthesis according to Bialonska et al. (Bialonska et al., 2009) or purchased from Sigma-Aldrich. The ointment containing urolithin A was prepared by emulsifying the weighed substance into a solid vehicle (white petrolatum) using an unguator. Wistar rats aged 5-6 weeks (at the start of the experiment) kept under standard conditions with free access to feed and water were used for the tests. The animals were divided into 5 groups, 8 individuals in each group. To prepare 2,4-dinitrochlorobenzene (DNCB) composition inducing inflammation, DNCB was dissolved in 70% ethanol to a final concentration of 1.5% (w/v). Therapeutic composition was an ointment based on white petrolatum with 0.2% or 1.0% urolithin A added. The control ointment was white petrolatum without addition of urolithin A. The induction of chronic atopic dermatitis involved local 9-fold infiltration with 60 μl 1.5% 2,4-dinitrochlorobenzene (DNCB) on each (external and internal) surface of the right ear over 3 weeks (3 times a week). Negative control was the right ear of rats without induction inflammation. Treatment of atopic dermatitis with 0.2% or 1.0% urolithin composition and white petrolatum (control) or 1.0% hydrocortisone composition (positive control) was started eight days after sensitization—one day before the fourth application of DNCB. Ointments with appropriate for given group drug added were applied in a total volume of about 20 μl to each ear surface one day before and 6 hours after each DNCB application (for a period of 3 weeks). The negative control group consisted of rats without induced inflammation and treated with white petrolatum in a regimen analogous to the composition of urolithin A or hydrocortisone. Ear thickness was assessed using an electronic mini caliper the day before inflammation was induced (day 0) and then on days 4 and 8 prior to treatment and on days 4, 8, 12, 16, […] of therapy with urolithin A composition (on days 12, 16, 20, 24, 28 and 32 after inflammation inducing, respectively). The experimental results obtained were analyzed using the Statistica 7.1 program (StatSoft, Inc., Tulsa, OK, USA) and presented as mean values±SE. Statistical significance was set at P≤0.05. The results with established normal distribution in the D'Agostin and Pearson test were prepared using two- or three-factor analysis of variance (ANOVA). Parametric post-hoc analysis for individual time points was performed using the Bonferroni test.

[5] = tested on: ERK1/2; test: ERK1/2 phosphorylation in THP-1 derived macrophages (Western blotting); assay type: cell-based, human; settings: 40 μM; LPS 10 ng/mL, 35 min; FIG. 15
Description: Monocytes of the THP-1 line were cultured in RPMI 1640 medium supplemented with 10% FBS and 2 mM glutamine. For transformation of monocytes into macrophages, the cells were treated with 12.5 ng/mL PMA (phorbol 12-myristate 13-acetate) for 48 hours, then washed and incubated for 24 hours in a culture medium without PMA. After this time, urolithin A, urolithin B, iso-urolithin A and the corresponding glucuronides (GUA, GUB and GiUA) were added to the cells at a concentration of 40 μM. After 1 hour of incubation with the compounds, the cells were stimulated with LPS from Escherichia coli (10 ng/mL). To assess the level of TNF-alpha production, the cells were incubated for 6 hours, to assess the expression of mRNA for TNF-alpha, the cells were incubated for 24 hours, to assess the effect on ERK1/2 phosphorylation, the cells were incubated for 35 minutes. […] The obtained results of experiments on in vitro models were analyzed using the Statistica 13 program (StatSoft, Inc., Tulsa, OK, USA) and presented as mean values±SEM. Statistical significance was set at P≤0.05. The results with established normal distribution in the D'Agostin and Pearson test were prepared using analysis of variance (ANOVA). Parametric post-hoc analysis was performed using Dunnett's test.

[6] = tested on: TNF-alpha; test: TNF-alpha production by macrophages from human peripheral blood monocytes (ELISA); assay type: cell-based; settings: 40 μM; LPS 100 ng/mL, 24 h; FIG. 16
Description: Monocytes were isolated from peripheral human blood by a standard method using dextran sedimentation and Ficoll Hypaque gradient centrifugation. After isolation, monocytes were suspended in RPMI 1640 medium supplemented with L-glutamine, HEPES, streptomycin, amphotericin and gentamicin, and 20% autologous serum. Cell culture was carried out under these conditions for 7 days. […] After 24h, TNF-alpha level in the medium was determined using the immunochemical ELISA method (BD biosciences). The obtained results of experiments on in vitro models were analyzed using the Statistica 13 program (StatSoft, Inc., Tulsa, OK, USA) and presented as mean values±SEM. Statistical significance was set at P≤0.05. The results with established normal distribution in the D'Agostin and Pearson test were prepared using analysis of variance (ANOVA). Parametric post-hoc analysis was performed using Dunnett's test.

[7] = tested on: mRNA for TNF-alpha; test: TNF-alpha mRNA expression in THP-1 derived macrophages (real time PCR); assay type: cell-based, human; settings: 40 μM; LPS stimulation; FIG. 14
Description: as §1, §2, §3, §4

[8] = day 32, 1% hydrocortisone, urolithin A 0.2 and 1%

In the case of `CC(=O)Oc1ccc2c(c1)oc(=O)c1ccccc12` [3-acetyl-urolithin B, reference compound], the “TNF-alpha production by THP-1 derived macrophages” value [1] is reported as “did not show any activity”.
For `O=C(O)[C@H]1O[C@@H](Oc2ccc3c(c2)oc(=O)c2ccccc23)[C@H](O)[C@@H](O)[C@@H]1O` [GUB, urolitin B 3-O-glucuronide], the “TNF-alpha production by THP-1 derived macrophages” value [1] was “did not show any activity”.
In the case of `O=C(O)[C@H]1O[C@@H](Oc2ccc3c(c2)oc(=O)c2ccc(O)cc23)[C@H](O)[C@@H](O)[C@@H]1O` [GiUA, Iso-urolithin A 3-O-glucuronide], the “TNF-alpha production by THP-1 derived macrophages” value [1] is reported as “did not show any activity”.
In the case of `C[C@]12CCC(=O)C=C1CC[C@@H]1[C@@H]2[C@@H](O)C[C@@]2(C)[C@H]1CC[C@]2(O)C(=O)CO` [hydrocortisone], the “Scratching rate (frequency of scratch reflexes)” value [2] is reported as “reduction in scratching rate”, the “WBC (leukocyte) level” value ([3]; 1% composition, day 32, vs petrolatum, hydrocortisone p<0.05, urolithin A p<0.01) is reported as “significant reduction in WBC” and the “Final WBC values compared to negative control (without atopic dermatitis)” value ([3]; 1% hydrocortisone, urolithin A 0.2 and 1%) is reported as “remained at a higher level compared to negative control groups”. For the same compound, the “MPV (fl), PDW (fl), PDWcv (%)” value ([3]; day 32) was “did not change”, the “RBC, HGB, HCT, MCV” value ([3]; day 32) was “no changes” and the “Thrombocrit (PCT %)” value ([3]; day 32, 1% composition, vs negative control, p<0.01) was “significantly higher values compared to the negative control group”. For the same compound, the “Number of thrombocytes (PLT)” value ([3]; day 32, 1% composition, vs negative control, p<0.05) was “significantly higher values compared to the negative control group”, the “Concentration of hemoglobin in erythrocytes (MCH and MCHC)” value ([3]; day 32, 1% hydrocortisone (p<0.05), urolithin A 0.2 and 1.0%) was “decrease in the concentration of hemoglobin in erythrocytes” and the RDW parameter level ([3]; day 32, 1% hydrocortisone, p<0.05) was “decrease in the RDW parameter level”. The Monocyte population [3, 8] was “reducing the population of monocytes and neutrophils”, the Neutrophil population [3, 8] was “reducing the population of monocytes and neutrophils” and the Lymphocyte level ([3]; day 32, 1% hydrocortisone, urolithin A 0.2 and 1%, vs petrolatum) was “no significant differences”. The “Time profile of anti-edema effect, urolithin A vs. hydrocortisone” value ([4]; initial period of therapy (up to 12 days)) was “greater therapeutic effectiveness” and the “Ear edema (ear thickness) after local therapy” value ([4]; topical ointment in white petrolatum, urolithin A 0.2 and 1.0%, hydrocortisone 1%, urolithin A p<0.001, hydrocortisone p<0.01) was “reduced”.
For `O=c1oc2cc(O)ccc2c2cc(O)ccc12` [iso-urolithin A], the “ERK1/2 kinase phosphorylation in THP-1 derived macrophages” value [5] was “much less active”, the “Inhibition of TNF-alpha production by macrophages from human peripheral blood monocytes” value [6] was “significantly less active” and the “TNF-alpha production by THP-1 derived macrophages” value [1] was “stimulated the production of TNF-alpha”. For the same compound, the “TNF-alpha mRNA expression in THP-1 derived macrophages” value [7] was “stimulated mRNA expression”.
For “urolitin A 3-O-glucuronide and urolitin A 8-O-glucuronide [GUA]”, the “TNF-alpha production by THP-1 derived macrophages” value [1] was “did not show any activity”.
